Five compounds from patent US11459323B2, “Monocyclic β-lactam compound for treating bacterial infection” (MEDSHINE DISCOVERY INC., priority 2018, dated 2022) can be followed below.

Test [1] has as its system Acinetobacter baumannii C408. Kind of test: MIC on clinically isolated bacteria. In kind it is cell-based. Particulars: Acinetobacter baumannii C408; read-out: Minimum Inhibitory Concentration (MIC). The procedure, abridged: (§1)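 Clinical strains were selected (twenty-five A. baumannii, twenty-seven P. aeruginosa), then compounds were serially diluted in liquid micro-dilution format following CLSI requirements to find the minimum inhibitory concentration.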

Test [2] deals with Acinetobacter baumannii C361. Briefly: MIC on clinically isolated bacteria. It is filed as cell-based. Particulars: Acinetobacter baumannii C361; read-out: Minimum Inhibitory Concentration (MIC). The procedure, abridged:
as §1

In test [3] the test system is Acinetobacter baumannii C403. Kind of test: MIC on clinically isolated bacteria. Particulars: Acinetobacter baumannii C403; read-out: Minimum Inhibitory Concentration (MIC). In kind it is cell-based. The gist of the method:
as §1

Test [4] deals with Pseudomonas aeruginosa W1. Briefly: MIC on clinically isolated bacteria. It is filed as cell-based. Particulars: read-out: MIC. The gist of the method: as §1
For test [5], the system named is Acinetobacter baumannii C270. Briefly: MIC on clinically isolated bacteria. It is filed as cell-based. Particulars: Acinetobacter baumannii C270; read-out: Minimum Inhibitory Concentration (MIC). The procedure, abridged:
as §1

The subject of test [6] is Acinetobacter baumannii C181. Briefly: MIC on clinically isolated bacteria. It is filed as cell-based. The conditions noted are these: Acinetobacter baumannii C181; read-out: Minimum Inhibitory Concentration (MIC). The procedure, abridged:
as §1

Test [7] concerns Pseudomonas aeruginosa W6. Briefly: MIC on clinically isolated bacteria. It is filed as cell-based. The conditions noted are these: read-out: MIC. The gist of the method: as §1
For test [8], the system named is Acinetobacter baumannii C312. Kind of test: MIC on clinically isolated bacteria. It is filed as cell-based. Particulars: Acinetobacter baumannii C312; read-out: Minimum Inhibitory Concentration (MIC). The procedure, abridged:
as §1

In test [9] the test system is Pseudomonas aeruginosa C763. Briefly: MIC on clinically isolated bacteria. In kind it is cell-based. Particulars: read-out: MIC. The gist of the method:
as §1

The subject of test [10] is Acinetobacter baumannii C281. Briefly: MIC on clinically isolated bacteria. It is filed as cell-based. Particulars: Acinetobacter baumannii C281; read-out: Minimum Inhibitory Concentration (MIC). The procedure, abridged: as §1
Test [11] has as its system Acinetobacter baumannii C319. Kind of test: MIC on clinically isolated bacteria. In kind it is cell-based. The conditions noted are these: Acinetobacter baumannii C319; read-out: Minimum Inhibitory Concentration (MIC). The gist of the method:
as §1

In test [12] the test system is E. coli MG1655Δtol C. Briefly: MIC by micro-liquid dilution method (CLSI). The conditions noted are these: Escherichia coli. In kind it is cell-based. The procedure, abridged:
(§2)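 MICs were determined by broth microdilution following CLSI requirements. The strains tested included K. pneumoniae BAA-1705 (KPC-2) and BAA-2470 (NDM-1), P. aeruginosa PA 14 and E. coli MG1655ΔtolC.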

For test [13], the system named is E. coli NCTC 13476 (IMP-1 type). Kind of test: MIC by micro-liquid dilution method (CLSI). Particulars: Escherichia coli; E. coli NCTC13476; read-out: MIC. It is filed as cell-based.
Test [14] relates to P. aeruginosa PA 14. Briefly: MIC by micro-liquid dilution method (CLSI). Particulars: Pseudomonas aeruginosa, PA14; P. aeruginosa PA 14; read-out: MIC. In kind it is cell-based. The gist of the method:
as §2

In test [15] the test system is E. coli ATCC BAA-2523 (OXA-48). Briefly: MIC by micro-liquid dilution method (CLSI). Particulars: Escherichia coli, ATCCBAA2523; E. coli ATCCBAA-2523; read-out: MIC. It is filed as cell-based.
The test system of test [16] is E. coli ATCC 25922. Briefly: MIC by micro-liquid dilution method (CLSI). It is filed as cell-based. The conditions noted are these: Escherichia coli.
Test [17] concerns Acinetobacter baumannii ATCC-BAA-1789. Briefly: MIC on Acinetobacter baumannii strains. In kind it is cell-based. Particulars: ATCCBAA1789. The gist of the method: (§3)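 Compounds were serially diluted in liquid medium, the strains were exposed to them according to CLSI procedures, and the minimum inhibitory concentration was recorded.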
Test [18] deals with Acinetobacter baumannii ATCC-BAA-1794. Kind of test: MIC on Acinetobacter baumannii strains. In kind it is cell-based. The procedure, abridged: as §3
In test [19] the test system is Acinetobacter baumannii ATCC-BAA-1793. Briefly: MIC on Acinetobacter baumannii strains. It is filed as cell-based. The procedure, abridged: as §3
Test [20] concerns Pseudomonas aeruginosa PA14. Kind of test: Lungs of immunosuppressed mice infected with Pseudomonas aeruginosa (2), lung bacterial load. It is filed as in vivo. The conditions noted are these: 24 hours after infection, day, ip at 2 h, 4 h, 6 h, 8 h. How it is done:
Pseudomonas aeruginosa PA14. 60 mice were intraperitoneally injected with 150 mg/kg cyclophosphamide on day 1 and day 4 to give immunosuppressed mice. […] [table] The mice were injected with 50 μL of bacterial solution (2×10^3 CFU) through the airway. 2 hours after the infection, 4 mice in the model group was sacrificed by removing cervical vertebra. Two hours after infection, the drugs were administered by groups, and the mice were administered intraperitoneally once at 2 hours, 4 hours, 6 hours, and 8 hours, a total of 4 times. Mice of each group were sacrificed by removing cervical vertebra 24 hours after infection, lung and kidney tissues were taken aseptically and put into a sterilized tissue homogenate tube, weighed, and an appropriate amount of normal saline (NS) was added, the mixture was homogenized by a homogenizer for 1 min, the lung tissues of the model group were diluted 10^4, 10^5, 10^6 times, the lung tissues of each administration group were diluted 10, 100 times, the kidney tissues of the model group were diluted 10^2, 10^3, 10^4 times, and the lung tissues of each administration group were diluted 10 times, the obtained mixtures were coated on TSA plates using spiral coater, then incubated at 37° C. overnight, and the CFU was counted with a colony counter. Graphpad Prism mapping software was used to make scatter plots of lung tissue CFU. SPSS19.0 software was used to count CFU and average body weight, and analysis of variance was used to analyze differences between groups.

Test [21] relates to P. aeruginosa ATCC 35151. Briefly: MIC by micro-liquid dilution method (CLSI). Particulars: Pseudomonas aeruginosa, ATCC35151. It is filed as cell-based.

Converted amounts (≈) assume the structure as drawn. Like-named read-outs stand apart in the source and are kept apart here. Some results are limits rather than exact numbers.

Consider `C[C@H]1[C@H](NC(=O)/C(=N\OC(C)(C)C(=O)O)c2csc(N)n2)C(=O)N1S(=O)(=O)O` [Aztreonam, reference compound], for which the MIC in [1] was 32 µg/mL (≈ 73.5 µM); in test [2], 32 µg/mL (≈ 73.5 µM); in test [3], 64 µg/mL (≈ 147 µM); in test [4], 32 µg/mL (≈ 73.5 µM); in [5] it was 64 µg/mL (≈ 147 µM); in [6], 64 µg/mL (≈ 147 µM). Also, the MIC is 32 µg/mL (≈ 73.5 µM) in [7]; 64 µg/mL (≈ 147 µM) in test [8]; 32 µg/mL (≈ 73.5 µM) in test [9]; 64 µg/mL (≈ 147 µM) in [10]; 64 µg/mL (≈ 147 µM) in test [11]; not above 0.125 µg/mL in test [12]. Also, the MIC in [13] came to 0.25 µg/mL (≈ 0.574 µM); in test [14], 8 µg/mL (≈ 18.4 µM); in test [15], 16 µg/mL (≈ 36.7 µM); in [16] (E. coli ATCC25922, read-out: MIC) it was 0.25 µg/mL (≈ 0.574 µM); in [17] it was 64 µg/mL (≈ 147 µM); in [18] (ATCCBAA1794, ATCC-BAA-1794, read-out: MIC), 32 µg/mL (≈ 73.5 µM). Also, the MIC in [19] (ATCCBAA1793, ATCC-BAA-1793, read-out: MIC) was 64 µg/mL (≈ 147 µM); in test [21] it was not above 0.125 µg/mL. This compound gave an LOG10-of bacterial load in [20] (total dosage 100 mg/kg) of 6.91 ± 1.63.

For `CC1(C)[C@H](NC(=O)/C(=N\O[C@@H](COc2ccc3c(c2)CN(C(=N)N[C@@H]2CCCNC2)C3)C(=O)O)c2csc(N)n2)C(=O)N1OS(=O)(=O)O` [Compound 41], the MIC in test [1] worked out at 2 µg/mL (≈ 2.82 µM); in [2], 1 µg/mL (≈ 1.41 µM); in test [3], 4 µg/mL (≈ 5.64 µM); in test [4], 2 µg/mL (≈ 2.82 µM); in test [5], 2 µg/mL (≈ 2.82 µM); in [6], 4 µg/mL (≈ 5.64 µM). In addition, the MIC in test [7] is 4 µg/mL (≈ 5.64 µM); in [8] it was 2 µg/mL (≈ 2.82 µM); in test [9] it was 4 µg/mL (≈ 5.64 µM); in test [10] it was 2 µg/mL (≈ 2.82 µM); in test [11] it was 2 µg/mL (≈ 2.82 µM). For the same compound, the figures for the LOG10-of bacterial load in test [20] (total dosage 20 mg/kg) and in test [20] (total dosage 60 mg/kg) were 4.12 ± 1.50 and 3.65 ± 2.15, respectively.

As for `CC1(C)[C@H](NC(=O)/C(=N\O[C@@H](COc2ccc3c(c2)CN(C(=N)NCCN)C3)C(=O)O)c2csc(N)n2)C(=O)N1OS(=O)(=O)O` [Compound 44], the MIC in [1] was 1 µg/mL (≈ 1.49 µM); in [2], 1 µg/mL (≈ 1.49 µM); in test [3], 2 µg/mL (≈ 2.99 µM); in test [4] it was 2 µg/mL (≈ 2.99 µM); in test [5], 1 µg/mL (≈ 1.49 µM); in test [6], 2 µg/mL (≈ 2.99 µM). For the same compound, the MIC in [7] was 4 µg/mL (≈ 5.97 µM); in test [8] it was 1 µg/mL (≈ 1.49 µM); in test [9], 2 µg/mL (≈ 2.99 µM); in test [10], 1 µg/mL (≈ 1.49 µM); in test [11], 1 µg/mL (≈ 1.49 µM). Besides, the LOG10-of bacterial load in test [20] (total dosage 20 mg/kg) is reported as 6.80 ± 0.94; in test [20] (total dosage 60 mg/kg), 2.40 ± 1.99.

`CC1(C)[C@H](NC(=O)/C(=N\O[C@@H](COc2ccc3c(c2)CN(/C(=N\[C@@H]2CCCNC2)N[C@@H]2CCCNC2)C3)C(=O)O)c2csc(N)n2)C(=O)N1OS(=O)(=O)O` [Compound 46]: the MIC in test [1] was determined as 4 µg/mL (≈ 5.04 µM); in test [2], 4 µg/mL (≈ 5.04 µM); in [3], 4 µg/mL (≈ 5.04 µM); in test [4], 1 µg/mL (≈ 1.26 µM); in [5], 4 µg/mL (≈ 5.04 µM); in test [6], 4 µg/mL (≈ 5.04 µM). Further, the MIC in test [7] came to 1 µg/mL (≈ 1.26 µM); in [8] it was 4 µg/mL (≈ 5.04 µM); in test [9], 4 µg/mL (≈ 5.04 µM); in test [10], 4 µg/mL (≈ 5.04 µM); in test [11] it was 4 µg/mL (≈ 5.04 µM). The LOG10-of bacterial load is 3.13 ± 2.45 in [20] (total dosage 20 mg/kg) and 0.34 ± 0.85 in test [20] (total dosage 60 mg/kg).

On to `C[C@@H](O)[C@H]1C(=O)N2C(C(=O)O)=C(S[C@@H]3CN[C@H](C(=O)N(C)C)C3)[C@H](C)[C@H]12` [Meropenem, reference compound], for which the MIC stood at 128 µg/mL (≈ 334 µM) in test [1]; 64 µg/mL (≈ 167 µM) in test [2]; 64 µg/mL (≈ 167 µM) in test [3]; 4 µg/mL (≈ 10.4 µM) in test [4]; 64 µg/mL (≈ 167 µM) in test [5]; 128 µg/mL (≈ 334 µM) in test [6]. Besides, the MIC is 32 µg/mL (≈ 83.4 µM) in test [7]; 64 µg/mL (≈ 167 µM) in test [8]; 32 µg/mL (≈ 83.4 µM) in [9]; 64 µg/mL (≈ 167 µM) in test [10]; 64 µg/mL (≈ 167 µM) in [11]; not above 0.125 µg/mL in test [12]. Further, the MIC in [13] is 32 µg/mL (≈ 83.4 µM); in test [14] it was 0.5 µg/mL (≈ 1.3 µM); in test [15], 2 µg/mL (≈ 5.22 µM); in [16] (ATCC25922), not above 0.125 µg/mL; in [17], 64 µg/mL (≈ 167 µM); in [18] (ATCCBAA1794) it was more than 128 µg/mL. The MIC in [19] (ATCCBAA1793) is more than 128 µg/mL; in test [21], not above 0.125 µg/mL.
